Source: US7348153B2, “Method for identifying and designing immunogenic peptides” (Health Research, Inc., priority 2004, dated 2008)
Marks after values point to notes of the source that are not given here.

Key:
Format in all cases: cell-based, human
[1] = system: PBMCs from melanoma patients; assay: PBMC proliferation assay (tritiated thymidine incorporation); details: for stimulation index: both peptides
Method: For proliferation assays, PBMCs were cultured in tetra-triplicate in 96-well flat-bottomed microtiter plates (Costar Corp., Cambridge, Mass.) at the concentration of 2×10^5 cells/well in 100 μl of complete RPMI 1640 containing L-glutamine and 10% fetal bovine serum. […] PBMCs were cultured for 6 days at 37° C. in a 5% CO2 atmosphere before addition of tritiated thymidine at a concentration of 1 μCi/well. Results are expressed as cpm of tritiated thymidine incorporated and as a stimulation index (Hogan et al. J Immunol 1989; 142:2097-104). The latter is the average cpm of lymphocytes cultured with peptide divided by the average cpm of lymphocytes cultured without peptide. […] After 5 additional days of culture at 37° C. cells were washed, replated, and restimulated at a 1:1 stimulator to responder ratio with irradiated (30 Gy) autologous PBMC stimulators and peptides at concentrations of 5, 25, and 50 μg/ml. IL-2 was added after 96 h, and cells were cultured for an additional 5 days at 37° C., after which they were restimulated for an additional 10 days at 37° C. Lymphocytes stimulated over three cycles were collected and used as effectors in a cytotoxicity (CTL) assay.

A375SM melanoma cells = assay: 51Cr release CTL assay against A375SM melanoma cells; details: for lysis of A375SM cells by peptide-stimulated PBMCs: immunized HLA-A2+ patient 1
Method: NP-, I-100, and I-102 on the abscissa indicate corresponding CTL effectors. NP-CTL indicates CTL stimulated by T2 cells and IL-2 without addition of peptides. […] The E:T ratio was 20:1 in a 20 h ^51Cr release assay. FIG. 6C depicts the kinetics of A375SM melanoma cell lysis by NP-CTL (∘), I-100-CTL (●), and I-102-CTL (▴). CTL were incubated with target cells for up to 20 h.
(§1) To determine the effects of the immunization with […] on activation of melanoma cell-lytic CTLs, we compared the responses of immunized HLA-A2^+ patients 1 and 6 with that of nonimmunized HLA-A2^+ patient 4. As specificity and restriction control we analyzed the responses of nonimmunized HLA-A2^− patients 3 and 5. All of the CTLs were tested for their ability to lyse T2 cells pulsed with the stimulating peptide and A375sm melanoma cells. Lymphocytes collected after three rounds of peptide stimulation were tested for their ability to lyse ^51Cr-labeled targets as described previously (Fisk, et al. J Exp Med 1998;181:2109-17; Murray, et al. Clin Cancer Res 2002;11:3407-18). […] Cold target inhibition of tumor cell lysis experiments was performed as described (Murray, et al. Clin Cancer Res 2002;11:3407-18).
To determine whether in vitro stimulation with peptides generated CTLs that recognized epitopes on HMW-MAA^+/HLA-A2^+ melanoma cells, PBMCs from immunized HLA-A2^+ patients 1 and 6 were stimulated with I-100 and 1-102 peptides and then tested for their ability to lyse A375SM melanoma cells. […] Therefore, these effectors were designated as I-100 CTL and I-102 CTL, respectively.

[2] = system: T2 cells pulsed with peptide; assay: 51Cr release CTL assay against peptide-pulsed T2 cells; details: for lysis of T2-I-100 by peptide-stimulated CTL: immunized HLA-A2+ patients 1 and 6, E:T 30:1, 4 hour 51Cr release; for lysis of T2 cells pulsed with the stimulating peptide by peptide-stimulated CTL: nonimmunized HLA-A2+ patient 4, E:T 30:1, 4 hour; for lysis of T2-I-100 and T2-I-102 targets by peptide-stimulated lymphocytes: nonimmunized HLA-A2− patient 5
Source text: FIGS. 5A-5E are graphical representations of cytolytic activity of NP, I-100 and I-102-CTL from HLA-A2 immunized patients # 1 and # 6 (FIGS. 5A and 5B, respectively) and from HLA-A2, non-immunized patient # 4 (FIG. 5C) against T2-NP (▪) and T2-I-100 (□) targets. FIG. 5D depicts lytic activity of NP- and I-102-CTL from HLA-A2^− patient #3 against T2-NP (▪) and T2-I-100 (□) targets. FIG. 5E depicts CTL lysis by NP-, I-100-, and I-102-CTL effectors from […] patient #5 against T2-I-100 targets. The E:T ratio was 30:1 in a 4 hour 51Cr release assay; bars, ±S D.
For proliferation assays, PBMCs were cultured in tetra-triplicate in 96-well flat-bottomed microtiter plates (Costar Corp., Cambridge, Mass.) at the concentration of 2×10^5 cells/well in 100 μl of complete RPMI 1640 containing L-glutamine and 10% fetal bovine serum. Peptides I-100 and I-101 were added at 5, 25, and 50 μg/ml in serum-free RPMI 1640 up to a total volume of 200 μl. PBMCs were cultured for 6 days at 37° C. in a 5% CO2 atmosphere before addition of tritiated thymidine at a concentration of 1 μCi/well. Results are expressed as cpm of tritiated thymidine incorporated and as a stimulation index (Hogan et al. J Immunol 1989; 142:2097-104). The latter is the average cpm of lymphocytes cultured with peptide divided by the average cpm of lymphocytes cultured without peptide. […] Peptide-specific T cells were propagated by adding recombinant interleukin (IL)2 (90 IU/ml; Biosource International, Camarillo, Calif.) to PBMCs that had been cultured for 96 h at 37° C. with peptides. After 5 additional days of culture at 37° C. cells were washed, replated, and restimulated at a 1:1 stimulator to responder ratio with irradiated (30 Gy) autologous PBMC stimulators and peptides at concentrations of 5, 25, and 50 μg/ml. IL-2 was added after 96 h, and cells were cultured for an additional 5 days at 37° C., after which they were restimulated for an additional 10 days at 37° C. Lymphocytes stimulated over three cycles were collected and used as effectors in a cytotoxicity (CTL) assay.
as §1

[3] = system: PBMCs from melanoma patients; assay: IFN-γ and IL-10 release by peptide-stimulated PBMC (double sandwich ELISA); details: for IL-10 levels after restimulation / IFN-γ levels: HLA-A2+ patient 6, 2° STIM, 25 μg/ml; for IFN-γ levels: comparison between peptides (P>0.05); for IFN-γ:IL-10 ratio: 2° STIM; for average IFN-γ levels after 2° STIM: peptides 25 μg/ml
Method: Interaction of T cells with Ag can induce a few cycles of division resulting in Ag-primed uncommitted T cells or can induce T cells to differentiate and gain effector function. The effector function is best characterized by the ability of Ag-stimulated T cells to secrete Th1 cytokines and to mediate lysis of specific targets. To determine whether T cells from immunized patients acquired cytokine effector function, IFN-γ and IL-10 were measured in supernatants harvested from PBMC cultures stimulated with I-100 and I-102 peptides. To measure cytokine release, supernatants were collected at 24, 48, and 72 h after primary and secondary stimulation with 5, 25, and 50 μg/ml of peptides and stored frozen at −20° C. IFN-γ and IL-10 levels were measured by a double sandwich ELISA using the corresponding kits supplied by Biosource International. Assays were calibrated with human recombinant IFN-γ and IL-10 to detect each cytokine in a range of 15-1000 pg/ml.
IL-10 was assayed instead of IL-4 as a representative Th2 cytokine, because the PBMCs used as responders were from patients with melanoma. Therefore, they might contain regulatory cells. Patient 6 had supernatants saved from two separate experiments. […] Because after priming, all of the stimulated PBMCs were expanded in IL-2, we determined the effect of culturing PBMCs in IL-2 on IFN-γ induction.

[4] = patient 8, −/+, 1° STIM up to 6 days
[5] = HLA-A2+ patients 1, 2 and 6 immunized with MELIMMUNE
[6] = HLA-A2− patients 3, 5, 9 and 10 not immunized
[7] = patient 1, HLA-A2 phenotype/immunization +/+, 1° STIM up to 6 days
[8] = patient 2, +/+, 1° STIM up to 6 days
[9] = patient 3, HLA-A2 −, 1° STIM up to 6 days
[10] = patient 4, +/−, 1° STIM up to 6 days
[11] = patient 5, HLA-A2 −, 1° STIM up to 6 days
[12] = patient 6, +/+, 1° STIM up to 6 days
[13] = patient 7, −/+, 1° STIM up to 6 days
[14] = patient 9, −/−, 1° STIM up to 6 days
[15] = patient 10, −/−, 1° STIM up to 6 days
[16] = PBMCs from HLA-A2+ patient 6 and four HLA-A2− patients, preliminary experiments

Row | Substance | tritiated thymidine incorporated [1, 4] [cpm] | stimulation index [1, 5] | stimulation index [1, 6] | S.I. (stimulation index) [1, 7] | tritiated thymidine incorporated [1, 7] | S.I. (stimulation index) [1, 8] | S.I. (stimulation index) [1, 9] | S.I. (stimulation index) [1, 10] | S.I. (stimulation index) [1, 11] | S.I. (stimulation index) [1, 12] | tritiated thymidine incorporated [1, 12] | S.I. (stimulation index) [1, 13] | tritiated thymidine incorporated [1, 13] [cpm] | S.I. (stimulation index) [1, 4] | S.I. (stimulation index) [1, 14] | tritiated thymidine incorporated [1, 14] [cpm] | S.I. (stimulation index) [1, 15] | tritiated thymidine incorporated [1, 15] [cpm] | lysis of A375SM cells by peptide-stimulated PBMCs (A375SM melanoma cells) | lysis of T2-I-100 by peptide-stimulated CTL [2] | further results
1 | E71: inactive HLA-A2 epitope from HER-2/neu protein, HER-2 (828-836) (QIAKGMSYL; UniProt P04626 828-836, looked up, fragment) [Peptide E71, reference compound] | 685±103 | – | – | – | – | – | – | – | – | – | – | – | – | – | – | – | – | – | – | – | tritiated thymidine incorporated ([1]; lymphocytes from HLA-A2+ immunized patients 1, 2 and 6 (NP=353±84 cpm)): 411±190 cpm
2 | LLQLGYSGRL (designed peptide) [Peptide I-102] | 650 ± 31 | 2.7±0.7 | 1.2±0.4 | (3.3) | 1519 ± 92^a cpm | (3.0) | (1.4) | (1.7) | (2.0) | (2.8) | 1464 ± 53^a cpm | (1.2) | 755 ± 56 | (1.2) | (0.9) | 425 ± 40 | (1.0 | 200 ± 20 | effectively lysed A375SM cells | to a significantly greater extent than control targets T2-NP | increase of lysis of A375SM cells from 5 h to 20 h (A375SM melanoma cells; peptide-stimulated CTL, kinetics of lysis): 59%; lysis of T2 cells pulsed with the stimulating peptide by peptide-stimulated CTL [2]: lysed T2-I-102; lysis of T2-I-102 targets by peptide-stimulated CTL ([2]; nonimmunized HLA-A2− patient 3, compared with T2-NP): no specific lysis; lysis of T2-I-100 and T2-I-102 targets by peptide-stimulated lymphocytes [2]: unable to specifically lyse; IL-10 levels after restimulation [3]: 212 ± 24 pg/mL; IFN-γ levels [3]: similar; IFN-γ:IL-10 ratio ([3]; HLA-A2+ patients): 3.96; IFN-γ:IL-10 ratio ([3]; HLA-A2− patients): 0.97; IL-10 after 2° STIM ([3]; PBMCs from HLA-A2+ patients): 155.7 ± 36.3 pg/mL; average IFN-γ levels after 2° STIM ([3]; PBMCs from HLA-A2+ patients): 616.1 ± 86.3 pg/mL; IL-10 after 2° STIM ([3]; PBMCs from HLA-A2− patients): 61.1 ± 25 pg/mL
3 | LLQLYSGRL (human; HMW-MAA) [Peptide I-101] | – | – | – | – | – | – | – | – | – | – | – | – | – | – | – | – | – | – | – | – | stimulation of proliferation [1, 16]: did not stimulate; stimulation of IFN-γ and IL-10 secretion [3, 16]: did not stimulate
4 | LLVLLYSKL (mouse; mAb MF11-30) [Peptide I-100] | 490 ± 54 | 2.7±0.7 | 1.2±0.4 | (2.5) | 1123 ± 240^a cpm | (3.3) | (1.1) | (1.5) | (1.7) | (3.1) | 1793 ± 58^a cpm | (1.1) | 652 ± 77 | (0.9) | (0.7) | 334 ± 26 | (0.9) | 184 ± 12 | effectively lysed A375SM cells | to a significantly greater extent than control targets T2-NP | tritiated thymidine incorporated [1, 9]: 655 ± 51 cpm; lysis of T2 cells pulsed with the stimulating peptide by peptide-stimulated CTL [2]: did not lyse T2-I-100; lysis of T2-I-100 and T2-I-102 targets by peptide-stimulated lymphocytes [2]: unable to specifically lyse; IL-10 levels after restimulation [3]: 86 ± 11 pg/mL; IFN-γ levels [3]: similar; IFN-γ and IL-10 levels ([3]; HLA-A2+ patient 6 and HLA-A2− patient 7, after 1° STIM): low; IFN-γ:IL-10 ratio ([3]; HLA-A2+ patients): 3.96; IFN-γ:IL-10 ratio ([3]; HLA-A2− patients): 0.97; IL-10 after 2° STIM ([3]; PBMCs from HLA-A2+ patients): 155.7 ± 36.3 pg/mL; average IFN-γ levels after 2° STIM ([3]; PBMCs from HLA-A2+ patients): 616.1 ± 86.3 pg/mL; IL-10 after 2° STIM ([3]; PBMCs from HLA-A2− patients): 61.1 ± 25 pg/mL
